Reference: ChEMBL document CHEMBL2074198, “Influence of passive permeability on apparent P-glycoprotein kinetics” (Pharm Res, 2000)

Assays:
[1] = biological target: T1, ATP-dependent translocase ABCB1 (Homo sapiens, UniProt P08183); experiment: TP_TRANSPORTER: inhibition of Vinblastine transepithelial transport (basal to apical) (Vinblastine: 0.004 uM, […]: 3000 uM) in Caco-2 cells; format: functional, cell-based; details: caco-2, 3000 µM
[2] = biological target: T1, ATP-dependent translocase ABCB1; experiment: TP_TRANSPORTER: inhibition of Vinblastine transepithelial transport (basal to apical)(Vinblastine: 0.004 uM, Nicardipine: 60 uM) in Caco-2 cells; format: functional, cell-based; details: caco-2, 60 µM

T1 sequence (P08183 whole entry): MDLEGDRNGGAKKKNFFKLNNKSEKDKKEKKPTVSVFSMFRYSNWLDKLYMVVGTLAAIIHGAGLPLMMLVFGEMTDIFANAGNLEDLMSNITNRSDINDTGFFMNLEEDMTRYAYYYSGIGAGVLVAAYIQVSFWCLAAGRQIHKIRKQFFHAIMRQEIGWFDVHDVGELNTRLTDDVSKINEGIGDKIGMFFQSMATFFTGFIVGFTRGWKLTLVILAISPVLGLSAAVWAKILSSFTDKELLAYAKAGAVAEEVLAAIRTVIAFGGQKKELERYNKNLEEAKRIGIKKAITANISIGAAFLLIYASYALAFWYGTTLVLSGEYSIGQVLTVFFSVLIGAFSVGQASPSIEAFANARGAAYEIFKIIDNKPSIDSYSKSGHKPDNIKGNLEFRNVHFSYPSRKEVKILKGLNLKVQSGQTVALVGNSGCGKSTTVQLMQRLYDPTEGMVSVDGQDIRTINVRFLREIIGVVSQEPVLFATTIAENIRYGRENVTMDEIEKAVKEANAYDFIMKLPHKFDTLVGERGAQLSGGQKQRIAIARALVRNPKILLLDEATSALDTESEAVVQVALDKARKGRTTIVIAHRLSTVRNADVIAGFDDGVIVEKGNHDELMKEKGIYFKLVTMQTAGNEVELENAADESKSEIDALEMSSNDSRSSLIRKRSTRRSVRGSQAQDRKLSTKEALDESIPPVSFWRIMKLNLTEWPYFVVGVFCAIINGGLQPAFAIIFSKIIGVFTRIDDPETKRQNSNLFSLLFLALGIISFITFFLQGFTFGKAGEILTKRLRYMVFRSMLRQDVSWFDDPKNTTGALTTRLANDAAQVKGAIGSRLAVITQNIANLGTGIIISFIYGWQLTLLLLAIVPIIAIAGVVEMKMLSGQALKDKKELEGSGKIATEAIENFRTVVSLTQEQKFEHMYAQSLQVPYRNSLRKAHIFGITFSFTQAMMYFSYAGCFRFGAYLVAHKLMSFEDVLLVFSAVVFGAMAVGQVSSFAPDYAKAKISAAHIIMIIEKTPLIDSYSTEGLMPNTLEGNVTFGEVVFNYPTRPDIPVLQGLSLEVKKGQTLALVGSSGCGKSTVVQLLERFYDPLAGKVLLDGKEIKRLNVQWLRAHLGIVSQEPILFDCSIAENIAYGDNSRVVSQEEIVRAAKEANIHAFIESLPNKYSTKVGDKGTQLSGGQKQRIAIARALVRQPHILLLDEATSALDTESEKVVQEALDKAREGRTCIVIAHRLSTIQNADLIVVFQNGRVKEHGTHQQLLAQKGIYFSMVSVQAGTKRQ

| SMILES | Activity [1] | Activity [2] |
| --- | --- | --- |
| CNC(=C[N+](=O)[O-])NCCSCc1ccc(CN(C)C)o1 [RANITIDINE] | inhibitor [+] | – |
| COC(=O)C1=C(C)NC(C)=C(C(=O)OCCN(C)Cc2ccccc2)C1c1cccc([N+](=O)[O-])c1 (configuration not stated) [NICARDIPINE] | – | inhibitor [+] |
